Where “and” joins values, the source holds several entries; their conditions need not be identical. Identical values can stand only once.
Columns and labels:
[1] = Basic photochemical properties: one-photon photolysis / quantum yield determination by comparison with MNI-Glu; format: physicochemical; details: for φ, quantum yield: Table 1, measured against MNI-Glu, filtered 280-400 nm Hg lamp; for quantum yield of photolysis: pH 7.4, compared with MNI-Glu; for photolyzed faster than MNI-Glu: pH 7.4, continuous-wave mercury arc lamp; for ε · φ: product of extinction coefficient and quantum yield, in M-1 cm-1 (unit assumed)
Description: The data imply that the quantum yield for release of L-glutamate from CDNI-Glu was about 0.5.
The extent of photolysis was measured either by HPLC (with inosine as the internal standard), or using the inherent changes in the UV-visible absorption spectra of the chromophores (FIGS. 4A-4D).
Quantum yield determination. The quantum yield for uncaging the new caged amino acids (CDNI-Glu, CNL-Glu, CNI-GABA and CNI-GABA) were measured by comparing the time of photolysis with the filtered (280-400 nm) output of a 500 W medium pressure Hg lamp of an equimolar solution (0.25 mM) of MNI-Glu and new cage. Inosine was used an inert internal standard. The path-length of the cuvette was 0.1 mm. The extent of reaction was monitored by HPLC as described previously (Huang, et al., 2005). […] Both methods gave very similar results.

GABA receptors [2] = experiment: 2-photon uncaging of caged GABA on hippocampal CA1 neurons in acutely isolated brain slices; format: cell-based, rat; details: for concentration of caged compound required to evoke currents / laser power required to evoke currents: 2-photon uncaging; for laser power required to evoke currents: 720 nm; for block of GABA receptor by the cage before uncaging: CNI-GABA at high concentrations, CDNI-GABA in smaller amount
[3] = Two-photon (action) cross section; format: physicochemical; details: for δ (relative), two-photon action cross section: MNI-Glu = 1
Description: (§1) What is the reason for continued focus on cage development? […] The first good caged glutamate was CNB-Glu (Weiboldt, et al., 1994). UV-laser excitation released glutamate quickly and with usable efficiency from this caged compound. […] For this reason, Bhc- and DMCNB-Glu were synthesized (Furuta et al., 1999; Ellis-Davies, 1999). […] However, when used for 2-photon photolysis MNI-Glu is applied at high concentrations (5-12 mM) that must be irradiated with powers at the very limit of tolerance for brain tissue (Matsuzaki, et al., 2004). For this reason, an even better caged glutamate is desired. An NI-Glu derivative was made containing a cross-linked benzophenone chromophore (“antenna-NI-Glu”, Papageorgiou, et al., 2004). When UV light (300-308 nm) was used to excite the benzophenone antenna, triplet energy transfer to the MNI cage released glutamate with high efficiency, which dropped considerably (ca. 2.5-fold) at 354 nm. […] In contrast, the inventor was able to uncage CDNI-Glu at 354 nm with very high efficiency (similar to the antenna-NI-Glu at 300 nm).
Given the power-squared law for 2-photon excitation (Denk, et al., 1990), this implies that the new chromophore is about 140-250 higher action cross-section for 2-photon uncaging, defined by Denk et al. (1990).
(§2) In order to evoke currents with CNI-GABA 20 mW for 2 ms and 10 mM must be used, whereas with CDNI-GABA only 4 mW and 0.5 mM are required. […] The effectiveness of CDNI-GABA is believed to be an important asset because high concentrations of the cages block GABA receptor before uncaging.
AMPA receptor currents evoked by 2-photon uncaging of MNI-Glu and CDNI-Glu on CA1 pyramidal neurons in acutely isolated brain slices were compared. An image of neuron from slice of hippocampus Post-natal day 15 (P15) rat brain was obtained. MNI-Glu and CNDI-Glu were applied at 10 mM and 2.5 mM to the same neuron, and glutamate was uncaged in the image area at 2 power levels according to methods previously described in Matsuzaki, et al., 2001 (compare FIGS. 5A & 5B, MNI-Glu currents shown on right hand side, CDNI-Glu currents shown on left hand side). The currents evoked by uncaging from CNDI-Glu were approximately 2-3× larger than MNI-Glu, implying 5-10× better reactivity for 2-photon uncaging.

AMPA receptors = experiment: 2-photon uncaging of caged glutamate, AMPA receptor currents on CA1 pyramidal neurons in acutely isolated brain slices; format: cell-based, rat
[4] = Hydrolysis of solutions stored at 4° C.; format: physicochemical
Description: as §1

[5] = Solubility in physiological buffer; format: physicochemical; details: for solubility (in words): physiological buffer / pH
Description: as §2
Advantageously, inventor had discovered that addition of the negative charge with CDNI-Glu solves both of these problems

[6] = laser flash photolysis (Gee, et al., 1994); cited from earlier work
GABA receptors [7] = details: outside-out membrane patches (Jayaraman, et al., 1999); cited from earlier work
[8] = 1 GM=10^−50 cm^4s/photon; background; cited from earlier work
[9] = background; cited from earlier work

SMILES: NCCCC(=O)N1CCc2c(OCC(=O)O)c([N+](=O)[O-])cc([N+](=O)[O-])c21 [CDNI-GABA, (1-[4-Aminobutanoyl]-5,7-dinitroindolin-4-yloxy)acetic acid]
- ε, molar extinction coefficient [1]: 8,600 M^−1 cm^−1
- φ, quantum yield [1]: 0.6
- quantum yield of photolysis [1]: 0.6
- photolyzed faster than MNI-Glu [1]: 700%
- ε · φ [1]: 5160
- concentration of caged compound required to evoke currents (GABA receptors [2]): 0.5 mM and 0.55 mM
- laser power required to evoke currents (GABA receptors [2]): 4 mW
- block of GABA receptor by the cage before uncaging (GABA receptors [2]): not blocking before uncaging
- effectiveness relative to CNI-GABA (GABA receptors [2]; GABA receptors on CA1 neurons): 5-10 times
- δ (relative), two-photon action cross section [3]: 5-10

SMILES: N[C@@H](CCC(=O)N1CCc2c(OCC(=O)O)c([N+](=O)[O-])cc([N+](=O)[O-])c21)C(=O)O [CDNI-Glu]
- ε, molar extinction coefficient [1]: 8,600 M^−1 cm^−1
- release of L-glutamate on photolysis ([1]; NMR analysis of the reaction mixture): essentially quantitatively
- φ, quantum yield [1]: 0.5
- quantum yield for release of L-glutamate ([1]; pH 7.4): about 0.5
- quantum yield of photolysis [1]: about 0.5
- ε · φ [1]: 4,300
- currents evoked by 2-photon uncaging, times larger than MNI-Glu (AMPA receptors; 2.5 mM vs MNI-Glu 10 mM on the same neuron, P15 rat hippocampus slice, listed as CNDI-Glu): 2-3 times and 3-4 times
- biological inertness of the cage toward AMPA receptors (AMPA receptors; before uncaging): biologically inert
- rise- and decay-times of the evoked currents compared with MNI-Glu (AMPA receptors; same CA1 pyramidal neuron): similar
- AMPA-receptor currents relative to MNI-Glu (AMPA receptors; sequential alternating application and uncaging on the same CA1 pyramidal neuron, same laser energy): five-times larger
- action cross-section for 2-photon uncaging, higher than MNI-Glu ([3]; implied by power-squared law for 2-photon excitation): 140-250
- δ (relative), two-photon action cross section [3]: 5-10
- hydrolysis after 13 d [4]: 7%
- solubility (in words) [5]: smooth solubilization of useful concentrations

SMILES: NCCCC(=O)OC(C(=O)O)c1ccccc1[N+](=O)[O-] (centres unmarked) [CNB-GABA]
- half-time of neurotransmitter release [6]: about 30 microseconds
- 10-90% rise time of activated currents (GABA receptors [7]): about 8 ms

SMILES: N[C@@H](CCC(=O)OC(C(=O)O)c1ccccc1[N+](=O)[O-])C(=O)O (some centres unmarked) [CNB-Glu]
- 2-photon cross section [8]: less than 0.001 GM
- hydrolytic stability (in words) [9]: some what hydrolytically unstable

SMILES: NCCCC(=O)N1CCc2c(OCC(=O)O)ccc([N+](=O)[O-])c21 [CNI-GABA]
- ε, molar extinction coefficient [1]: 4,300 M^−1 cm^−1
- φ, quantum yield [1]: 0.1
- quantum yield of photolysis [1]: 0.1
- photolyzed faster than MNI-Glu [1]: about 10%
- ε · φ [1]: 430
- concentration of caged compound required to evoke currents (GABA receptors [2]): 10 mM
- laser power required to evoke currents (GABA receptors [2]): 20 mW
- block of GABA receptor by the cage before uncaging (GABA receptors [2]): partially blocks
- δ (relative), two-photon action cross section [3]: 1

SMILES: NC(CCC(=O)N1CCc2c(OCC(=O)O)ccc([N+](=O)[O-])c21)C(=O)O (centres unmarked) [CNI-Glu, 4-carboxymethoxy-7-nitroinlinylglutamate]
- ε, molar extinction coefficient [1]: 4,300 M^−1 cm^−1
- fraction photolyzed during the time required for complete photolysis of CDNI-Glu ([1]; NMR analysis of a photolysis solution of 7, CNI-Glu and CDNI-Glu): about 10%
- φ, quantum yield [1]: 0.1
- quantum yield of photolysis [1]: about 0.1
- ε · φ [1]: 430
- δ (relative), two-photon action cross section [3]: 1

SMILES: COc1c([N+](=O)[O-])cc([N+](=O)[O-])c2c1CCN2C(=O)CCC(N)C(=O)O (centres unmarked) [MDNI-Glu, 4-methoxy-5,7-dinitroinlinylglutamate]
- current signals from hippocampal neurons on 2-photon uncaging (AMPA receptors; 1 mM solutions): did not evoke any current signals
- concentration of solutions that could be made [5]: ≥ 1000 µM
- behaviour of buffer solution when frozen ([5]; buffer, frozen, then room temperature): precipitate in buffer when frozen

SMILES: COc1ccc([N+](=O)[O-])c2c1CCN2C(=O)CCCN [MNI-GABA]
- solubility (in words) [5]: not soluble enough for uncaging

SMILES: COc1ccc([N+](=O)[O-])c2c1CCN2C(=O)CC[C@H](N)C(=O)O [MNI-Glu, Methoxynitroindoline-caged L-glutamate, reference compound]
- ε, molar extinction coefficient [1]: 4,300 M^−1 cm^−1
- φ, quantum yield [1]: 0.085
- ε · φ [1]: 366
- δ (relative), two-photon action cross section [3]: 1
- hydrolysis after 2 d [4]: no detectable hydrolysis
- hydrolysis after 13 d [4]: 1%
